{
  "source": "patent US9079866B2",
  "about": "“Flap modulators” (JANSSEN PHARMACEUTICA NV, priority 2013, dated 2015)",
  "note": "Counter-ions that a name gives are not always drawn.",
  "data": [
    {"target": "human FLAP (Homo sapiens (Human), UniProt P20292)", "sequence (P20292 whole entry)": "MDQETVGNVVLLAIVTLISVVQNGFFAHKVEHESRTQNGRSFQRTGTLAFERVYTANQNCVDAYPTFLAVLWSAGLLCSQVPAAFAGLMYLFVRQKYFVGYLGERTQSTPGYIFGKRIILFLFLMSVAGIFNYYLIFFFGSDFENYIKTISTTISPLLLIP", "test": "FLAP binding assay (HTRF format)", "details": "wild type FLAP, HTRF format", "protocol": "The ability of the compounds of the present invention to treat a FLAP-mediated disease and/or disorder, or associated symptoms or complications thereof, was determined using the following procedures. Binding assay data represent the average value obtained from two different assay plates, with samples run in duplicate on each plate. Human whole blood assay data represent a single replicate on an assay plate using whole blood from at least one healthy donor.\nData are expressed as a HTRF ratio.", "units": {"Ki": "nM"}, "values": [
      {"smiles": "CC(C)(C)NS(=O)(=O)c1ccccc1-c1ccc(-c2cnc(N)c(C(=O)O)n2)c(F)c1", "note": "[Example 598, 3-Amino-6-[2′-(tert-butylsulfamoyl)-3-fluorobiphenyl-4-yl]pyrazine-2-carboxylic acid]", "Ki": "> 10000"},
      {"smiles": "NC(=O)CS(=O)(=O)c1ccccc1-c1ccc(-c2cnc(N)nc2)c(F)c1", "note": "[Example 599, 2-{[4′-(2-Aminopyrimidin-5-yl)-3′-fluorobiphenyl-2-yl]sulfonyl}acetamide]", "Ki": "> 10000"},
      {"smiles": "CCN(CC)C(=O)CS(=O)(=O)c1ccccc1-c1ccc(-c2cnc(N)nc2)c(F)c1", "note": "[Example 600, 2-{[4′-(2-Aminopyrimidin-5-yl)-3′-fluorobiphenyl-2-yl]sulfonyl}-N,N-diethylacetamide]", "Ki": "> 10000"},
      {"smiles": "Nc1ncc(-c2ccc(-c3ccccc3S(=O)(=O)CC(=O)N3CCOCC3)cc2F)cn1", "note": "[Example 601, 5-{3-Fluoro-2′-[(2-morpholin-4-yl-2-oxoethyl)sulfonyl]biphenyl-4-yl}pyrimidin-2-amine]", "Ki": "> 10000"},
      {"smiles": "Nc1cnc(-c2ccc(-c3ccccc3OCCO)cc2F)cn1", "note": "[Example 628, 2-{[4′-(5-Aminopyrazin-2-yl)-3′-fluorobiphenyl-2-yl]oxy}ethanol]", "Ki": 336},
      {"smiles": "Nc1ncc(-c2ccc(-c3ccccc3OCCO)cc2F)cn1", "note": "[Example 629, 2-{[4′-(2-Aminopyrimidin-5-yl)-3′-fluorobiphenyl-2-yl]oxy}ethanol]", "Ki": 836},
      {"smiles": "Nc1cnc(-c2ccc(-c3ccccc3OC3CCNCC3)cc2F)cn1", "note": "[Example 630, 5-[3-Fluoro-2′-(piperidin-4-yloxy)biphenyl-4-yl]pyrazin-2-amine]", "Ki": 1900},
      {"smiles": "Nc1ncc(-c2ccc(-c3ccccc3OC3CCNCC3)cc2F)cn1", "note": "[Example 631, 5-[3-Fluoro-2′-(piperidin-4-yloxy)biphenyl-4-yl]pyrimidin-2-amine]", "Ki": "> 10000"},
      {"smiles": "NCCOc1ccccc1-c1ccc(-c2cnc(N)nc2)c(F)c1", "note": "[Example 641, 5-[2′-(2-Aminoethoxy)-3-fluorobiphenyl-4-yl]pyrimidin-2-amine]", "Ki": "> 10000"},
      {"smiles": "Nc1ncc(-c2ccc(-c3ccccc3OCC(=O)O)cc2F)cn1", "note": "[Example 644, {[4′-(2-Aminopyrimidin-5-yl)-3′-fluorobiphenyl-2-yl]oxy}acetic acid]", "Ki": "> 10000"},
      {"smiles": "Nc1ncc(-c2ccc(-c3cccnc3OCCO)cc2F)cn1", "note": "[Example 649, 2-({3-[4-(2-Aminopyrimidin-5-yl)-3-fluorophenyl]pyridin-2-yl}oxy)ethanol]", "Ki": "> 10000"},
      {"smiles": "Nc1cnc(-c2ccc(-c3cccnc3OCCO)cc2F)cn1", "note": "[Example 650, 2-({3-[4-(5-Aminopyrazin-2-yl)-3-fluorophenyl]pyridin-2-yl}oxy)ethanol]", "Ki": 832},
      {"smiles": "C[C@H](CO)Oc1ncccc1-c1ccc(-c2cnc(N)nc2)c(F)c1", "note": "[Example 658, (2I)-2-({3-[4-(2-Aminopyrimidin-5-yl)-3-fluorophenyl]pyridin-2-yl}oxy)propan-1-ol]", "Ki": 572},
      {"smiles": "CS(=O)(=O)Nc1ccccc1-c1ccc(-c2ccc(N)nc2)c(F)c1", "note": "[Example 659, N-(4′-(6-Aminopyridin-3-yl)-3′-fluoro-[1,1′-biphenyl]-2-yl)methanesulfonamide]", "Ki": "~750"},
      {"smiles": "CNS(=O)(=O)c1ccccc1-c1ccc(-c2ccc(N)nc2)c(F)c1", "note": "[Example 661, 4′-(6-Aminopyridin-3-yl)-3′-fluoro-N-methyl-[1,1′-biphenyl]-2-sulfonamide]", "Ki": "~2490"},
      {"smiles": "Nc1ccc(-c2ccc(-c3ccccc3S(N)(=O)=O)cc2F)cn1", "note": "[Example 662, 4′-(6-Aminopyridin-3-yl)-3′-fluoro-[1,1′-biphenyl]-2-sulfonamide trifluoroacetate]", "Ki": "~1220"},
      {"smiles": "Nc1ncc(-c2ccc(-c3ccccc3C(=O)N3CCOCC3)cn2)cn1", "note": "[Example 677, 5-{5-[2-(Morpholin-4-ylcarbonyl)phenyl]pyridin-2-yl}pyrimidin-2-amine]", "Ki": "> 10000"},
      {"smiles": "COc1ccccc1-c1ccc(-c2cnc(N)nc2)nc1", "note": "[Example 678, 5-[5-(2-Methoxyphenyl)pyridin-2-yl]pyrimidin-2-amine]", "Ki": "> 10000"},
      {"smiles": "Nc1ncc(-c2ccc(-c3ccccc3S(=O)(=O)C3CC3)cn2)cn1", "note": "[Example 691, 5-{5-[2-(Cyclopropylsulfonyl)phenyl]pyridin-2-yl}pyrimidin-2-amine trifluoroacetic acid salt]", "Ki": "> 10000"},
      {"smiles": "N#Cc1ccccc1-c1ccc(-c2cnc(N)cn2)c(F)c1", "note": "[Example 701, 4′-(5-Aminopyrazin-2-yl)-3′-fluorobiphenyl-2-carbonitrile]", "Ki": "~1410"},
      {"smiles": "Nc1cnc(-c2ccc(-c3ccccc3N3CCNC3=O)cc2F)cn1", "note": "[Example 702, 1-(4′-(5-Aminopyrazin-2-yl)-3′-fluoro-[1,1′-biphenyl]-2-yl)imidazolidin-2-one]", "Ki": "~304"},
      {"smiles": "CC(C)(C)NS(=O)(=O)c1ccccc1-c1ccc(-c2cnc(N)nc2C#N)c(F)c1", "note": "[Example 703, 4′-(2-Amino-4-cyanopyrimidin-5-yl)-N-tert-butyl-3′-fluorobiphenyl-2-sulfonamide]", "Ki": "> 10000"},
      {"smiles": "Nc1ncc(-c2ccc(-c3ccccc3S(=O)(=O)CCNC(=O)c3ccccc3)cc2F)cn1", "note": "[Example 716, N-(2-{[4′-(2-Aminopyrimidin-5-yl)-3′-fluorobiphenyl-2-yl]sulfonyl}ethyl)benzamide]", "Ki": "> 10000"},
      {"smiles": "Nc1ncc(-c2ccc(-c3ccccc3S(=O)(=O)c3ncccn3)cc2F)cn1", "note": "[Example 718, 5-[3-Fluoro-2′-(pyrimidin-2-ylsulfonyl)biphenyl-4-yl]pyrimidin-2-amine]", "Ki": "> 10000"},
      {"smiles": "Nc1ncc(-c2ccc(-c3ccccc3S(=O)(=O)c3cnccn3)cc2F)cn1", "note": "[Example 719, 5-[3-Fluoro-2′-(pyrazin-2-ylsulfonyl)biphenyl-4-yl]pyrimidin-2-amine]", "Ki": "> 10000"},
      {"smiles": "Nc1ncc(-c2ccc(-c3ccccc3S(=O)(=O)c3ccncn3)cc2F)cn1", "note": "[Example 720, 5-[3-Fluoro-2′-(pyrimidin-4-ylsulfonyl)biphenyl-4-yl]pyrimidin-2-amine]", "Ki": "> 10000"},
      {"smiles": "Nc1cc(S(=O)(=O)c2ccccc2-c2ccc(-c3cnc(N)nc3)c(F)c2)ncn1", "note": "[Example 721, 5-{2′-[(6-Aminopyrimidin-4-yl)sulfonyl]-3-fluorobiphenyl-4-yl}pyrimidin-2-amine]", "Ki": "> 10000"},
      {"smiles": "Nc1ccnc(S(=O)(=O)c2ccccc2-c2ccc(-c3cnc(N)nc3)c(F)c2)n1", "note": "[Example 722, 5-{2′-[(4-Aminopyrimidin-2-yl)sulfonyl]-3-fluorobiphenyl-4-yl}pyrimidin-2-amine]", "Ki": "> 10000"},
      {"smiles": "Nc1cnc(S(=O)(=O)c2ccccc2-c2ccc(-c3cnc(N)nc3)c(F)c2)cn1", "note": "[Example 723, 5-{2′-[(5-Aminopyrazin-2-yl)sulfonyl]-3-fluorobiphenyl-4-yl}pyrimidin-2-amine]", "Ki": "> 10000"},
      {"smiles": "Nc1ncc(-c2ccc(-c3ccccc3S(=O)(=O)c3ccnc(N)n3)cc2F)cn1", "note": "[Example 724, 4-{[4′-(2-Aminopyrimidin-5-yl)-3′-fluorobiphenyl-2-yl]sulfonyl}pyrimidin-2-amine]", "Ki": "> 10000"},
      {"smiles": "Nc1cncc(S(=O)(=O)c2ccccc2-c2ccc(-c3cnc(N)nc3)c(F)c2)n1", "note": "[Example 725, 5-{2′-[(6-Aminopyrazin-2-yl)sulfonyl]-3-fluorobiphenyl-4-yl}pyrimidin-2-amine]", "Ki": 1300},
      {"smiles": "Nc1cnc(-c2ccc(-c3ccccc3S(=O)(=O)c3cc(N)ncn3)cc2F)cn1", "note": "[Example 726, 6-{[4′-(5-Aminopyrazin-2-yl)-3′-fluorobiphenyl-2-yl]sulfonyl}pyrimidin-4-amine]", "Ki": 904},
      {"smiles": "Nc1ncc(-c2ccc(-c3ccccc3S(=O)(=O)CC3CC3)cc2F)cn1", "note": "[Example 728, 5-{2′-[(Cyclopropylmethyl)sulfonyl]-3-fluorobiphenyl-4-yl}pyrimidin-2-amine]", "Ki": 781},
      {"smiles": "CC(C)(C#N)S(=O)(=O)c1ccccc1-c1ccc(-c2cnc(N)nc2)c(F)c1", "note": "[Example 732, 2-{[4′-(2-Aminopyrimidin-5-yl)-3′-fluorobiphenyl-2-yl]sulfonyl}-2-methylpropanenitrile]", "Ki": 557},
      {"smiles": "CC(C)(C(N)=O)S(=O)(=O)c1ccccc1-c1ccc(-c2cnc(N)nc2)c(F)c1", "note": "[Example 733, 2-{[4′-(2-Aminopyrimidin-5-yl)-3′-fluorobiphenyl-2-yl]sulfonyl}-2-methylpropanamide]", "Ki": "> 10000"},
      {"smiles": "CC(C)(CN)S(=O)(=O)c1ccccc1-c1ccc(-c2cnc(N)nc2)c(F)c1", "note": "[Example 734, 5-{2′-[(2-Amino-1,1-dimethylethyl)sulfonyl]-3-fluorobiphenyl-4-yl}pyrimidin-2-amine]", "Ki": "> 10000"},
      {"smiles": "CC(C)(CN)S(=O)(=O)c1ccccc1-c1ccc(-c2cnc(N)cn2)c(F)c1", "note": "[Example 737, 5-{2′-[(2-Amino-1,1-dimethylethyl)sulfonyl]-3-fluorobiphenyl-4-yl}pyrazin-2-amine]", "Ki": 984},
      {"smiles": "NCC1(S(=O)(=O)c2ccccc2-c2ccc(-c3cnc(N)nc3)c(F)c2)CCCC1", "note": "[Example 740, 5-(2′-{[1-(Aminomethyl)cyclopentyl]sulfonyl}-3-fluorobiphenyl-4-yl)pyrimidin-2-amine]", "Ki": "> 10000"},
      {"smiles": "CC(C)(C)NS(=O)(=O)c1ccccc1-c1ccc(-c2cnc(NS(C)(=O)=O)cn2)c(F)c1", "note": "[Example 748, N-(tert-Butyl)-3′-fluoro-4′-(5-(methylsulfonamido)pyrazin-2-yl)-[1,1′-biphenyl]-2-sulfonamide]", "Ki": "> 10000"},
      {"smiles": "CS(=O)(=O)Cc1ccccc1-c1ccc(-c2cnc(N)cn2)c(F)c1", "note": "[Example 750, 5-{3-Fluoro-2′-[(methylsulfonyl)methyl]biphenyl-4-yl}pyrazin-2-amine]", "Ki": 1160},
      {"smiles": "Nc1cnc(-c2ccc(-c3ccccc3C(=O)N3CC(O)C3)cc2F)cn1", "note": "[Example 755, 1-{[4′-(5-Aminopyrazin-2-yl)-3′-fluorobiphenyl-2-yl]carbonyl}azetidin-3-ol]", "Ki": 940},
      {"smiles": "Nc1cnc(-c2ccc(-c3ccccc3C(=O)NC3CCOCC3)cc2F)cn1", "note": "[Example 756, 4′-(5-Aminopyrazin-2-yl)-3′-fluoro-N-(tetrahydro-2H-pyran-4-yl)biphenyl-2-carboxamide]", "Ki": "> 10000"},
      {"smiles": "Nc1ncc(-c2ccc(-c3ccccc3C(=O)NCCO)cc2F)cn1", "note": "[Example 761, 4′-(2-Aminopyrimidin-5-yl)-3′-fluoro-N-(2-hydroxyethyl)biphenyl-2-carboxamide]", "Ki": "> 10000"}
    ]}
  ]
}
